Laboratory results as given in article PMC12116762, “Topobexin targets the Topoisomerase II ATPase domain for beta isoform-selective inhibition and anthracycline cardioprotection” (Nature Communications, 2025).

Columns and labels:
[1] = target: T1, TOP2B C88Y (Homo sapiens, UniProt Q02880, C93Y); assay: ATPase activity of TOP2B C88Y mutant; type: biochemical
T1 construct: Using recombinant full-length human TOP2A and TOP2B enzymes; YFP (N, cleaved yes); made in house; host or cells: HEK293F
Protocol: The human topoisomerase II decatenation assay was performed to determine the inhibitory effects of BNS-22 and new compounds as previously described with minor modifications[14],[36]. The assay was performed using recombinant human TOP2A or TOP2B generated using the HEK293F YFP-tag expression system as previously described[18],[19],[36]. Briefly, plasmids encoding YFP-TOP2A or YFP-TOP2B were transfected into HEK293F cells (Catalog number 11625019, Thermofisher Scientific), and TOP2 proteins were isolated from cell lysates by anti-YFP nanobody affinity chromatography. After elution by TEV protease cleavage, TOP2 proteins were FPLC purified by sequential cation exchange and size exclusion chromatography. Plasmid encoding TOP2B C88Y was generated by round-the-horn PCR mutagenesis and the sequence was verified by full-plasmid sequencing. Purified TOP2 proteins were stored in a storage buffer containing 20 mM HEPES pH 7.5, 500 mM NaCl, 0.5 mM TCEP, 25% (v/v) glycerol at -80 °C. For decatenation assays, purified TOP2 proteins were incubated with 200 ng kDNA (Topogen) in a reaction buffer containing 50 mM Tris−HCl (pH 8), 100 mM NaCl, 10 mM MgCl2, 0.5 mM DTT, 2 mM ATP, 0.1 mM tris(2-carboxyethyl)phosphine (TCEP), 5% (v/v) glycerol, 70 μg/mL bovine serum albumin, and 1/10 volume of each compound diluted in 10% DMSO (final DMSO concentration 1%) for 40 min at 37 °C. The reaction was then stopped by the addition of gel loading buffer (0.5 volumes of 60% (w/v) glycerol, 60 mM EDTA, 20 mM Tris−HCl (pH 7.5), 0.5 mg/mL bromophenol blue) and the samples were placed on ice. Reaction products were resolved by agarose gel electrophoresis in TBE buffer containing GelRed stain (Biotium). Gels were visualized using an iBright CL1000 (Thermofisher Scientific). Band intensities were quantified using FIJI, and the signal of the treated samples was normalized to the value of the control (untreated sample; 100%) present on the same gel. The normalized signal of three independent measurements was then expressed as mean ± SD. Each presented data point was obtained from distinct sample. Normalized values were plotted as a function of inhibitor concentration to determine IC50 values by nonlinear regression with variable slope using Prism 9 (GraphPad).
Topoisomerase proteins were diluted to 500 nM in storage buffer containing 20 mM HEPES pH 7.5, 500 mM NaCl, 0.5 mM TCEP, 25% glycerol, and 0.2 mg/mL BSA prior to use. A coupled assay was used to measure TOP2-catalyzed ATP hydrolysis in vitro[37] in Costar 96-well plates (Corning Incorporated). […] Reaction plates were pre-warmed to 30 °C for 5 min and ATP was added last to initiate the reaction. The reaction plate was placed in a CLARIOstarPlus plate reader (BMG Labtech) to measure NADH fluorescence at 30 °C every 30 s over 120 cycles using a 340-60 excitation filter and a 480-100 emission filter. Background fluorescence signals calculated from wells containing no ATP were subtracted from each measurement. The slope of NADH fluorescence decay in each well was calculated using the MARS software (BMG Labtech) and reaction wells that lacked topoisomerase inhibitor to account for photobleaching of NADH fluorescence served as background subtraction. Each presented data point was obtained from distinct sample. Values were normalized to untreated controls and plotted as a function of inhibitor concentration to determine IC50 values using Prism 9 (GraphPad).

[2] = Aqueous solubility; type: physicochemical; details: limited evaluation to ≤ 10 μM

T1 sequence (Q02880 1-1621 isoform Q02880-2 C88Y): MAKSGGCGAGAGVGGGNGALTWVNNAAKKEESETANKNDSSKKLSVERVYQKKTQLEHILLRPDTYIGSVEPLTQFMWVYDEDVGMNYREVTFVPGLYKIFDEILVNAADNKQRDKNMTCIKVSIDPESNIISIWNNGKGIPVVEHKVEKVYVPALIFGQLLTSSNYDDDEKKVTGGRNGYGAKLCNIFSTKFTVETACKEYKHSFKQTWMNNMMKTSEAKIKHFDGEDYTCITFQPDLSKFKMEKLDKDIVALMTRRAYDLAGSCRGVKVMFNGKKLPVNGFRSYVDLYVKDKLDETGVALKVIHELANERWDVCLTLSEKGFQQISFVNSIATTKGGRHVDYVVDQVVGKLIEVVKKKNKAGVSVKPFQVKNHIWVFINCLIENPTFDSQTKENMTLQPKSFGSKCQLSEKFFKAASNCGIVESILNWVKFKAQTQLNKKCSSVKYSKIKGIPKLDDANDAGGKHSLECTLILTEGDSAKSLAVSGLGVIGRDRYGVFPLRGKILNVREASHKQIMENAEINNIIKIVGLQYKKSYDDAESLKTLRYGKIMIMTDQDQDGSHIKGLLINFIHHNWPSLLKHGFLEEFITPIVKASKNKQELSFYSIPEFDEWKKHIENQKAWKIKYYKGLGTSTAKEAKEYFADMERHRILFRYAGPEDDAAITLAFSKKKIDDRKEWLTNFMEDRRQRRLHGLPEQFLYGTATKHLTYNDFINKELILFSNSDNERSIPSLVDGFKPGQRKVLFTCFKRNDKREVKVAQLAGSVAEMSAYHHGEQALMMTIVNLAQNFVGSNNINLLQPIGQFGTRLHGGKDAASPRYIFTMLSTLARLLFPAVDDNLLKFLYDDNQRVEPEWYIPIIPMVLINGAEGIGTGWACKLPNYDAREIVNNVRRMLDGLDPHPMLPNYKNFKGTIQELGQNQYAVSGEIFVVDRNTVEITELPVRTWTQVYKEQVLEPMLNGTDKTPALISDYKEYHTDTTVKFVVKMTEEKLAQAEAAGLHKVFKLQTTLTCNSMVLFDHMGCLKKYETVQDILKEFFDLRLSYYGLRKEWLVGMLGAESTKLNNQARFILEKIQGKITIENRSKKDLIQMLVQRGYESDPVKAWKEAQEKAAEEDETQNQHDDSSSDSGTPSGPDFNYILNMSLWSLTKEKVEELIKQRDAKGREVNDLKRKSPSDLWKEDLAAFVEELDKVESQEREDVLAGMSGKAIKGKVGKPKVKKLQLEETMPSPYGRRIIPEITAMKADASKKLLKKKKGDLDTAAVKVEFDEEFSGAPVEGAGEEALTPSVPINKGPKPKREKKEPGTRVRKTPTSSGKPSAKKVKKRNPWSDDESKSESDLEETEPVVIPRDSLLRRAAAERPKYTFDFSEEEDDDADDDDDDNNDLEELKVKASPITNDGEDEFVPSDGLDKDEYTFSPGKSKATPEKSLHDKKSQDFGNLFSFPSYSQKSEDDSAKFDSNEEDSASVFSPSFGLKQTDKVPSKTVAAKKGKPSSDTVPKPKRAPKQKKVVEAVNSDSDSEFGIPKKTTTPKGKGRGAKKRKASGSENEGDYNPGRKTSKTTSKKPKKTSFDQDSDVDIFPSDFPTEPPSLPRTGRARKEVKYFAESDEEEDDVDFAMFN

CCCc1cc(=O)oc2c(C(=O)N3CCCc4ccccc43)c(OC)cc(OC)c12 [BNS-22]
IC50 [1]: 1.55 µM
effect of C88Y mutation in TOP2B on inhibition ([1]; vs TOP2B WT): did not alter inhibition
solubility in aqueous environment [2]: poor solubility in aqueous environment
